Consider four molecules from patent US11117898B2, “Pyrazolo-heteroaryl derivative, preparation method and medical use thereof” (Jiangsu Hengrui Medicine Co., Ltd., priority 2016, dated 2021).

Some results are limits rather than exact numbers.

Data set [1] concerns the target CYP3A4 (Homo sapiens (Human), UniProt P08684). Nature of the data set: Inhibition of the testosterone metabolite site of CYP3A4 in human liver microsomes. Particulars: probe substrate testosterone. The data set is classed as in vitro ADME. As to the method:
The effect of the compounds of the present invention on the enzyme activity of testosterone metabolite site of CYP3A4 in human liver microsomes was determined by the following experimental method:
100 mM PBS buffer was formulated, which was then used to formulate 2.5 mg/ml microsome solution and 5 mM NADPH solution. The 5× concentration of the compound working solution was diluted with PBS gradient (150, 50, 15, 5, 1.5, 0.15, 0.015, 0 μM). The 5× concentration of ketoconazole working solution was diluted with PBS gradient (150, 50, 15, 5, 1.5, 0.15, 0.015, 0 μM). Dextromethorphan working solution was diluted with PBS to a concentration of 50 μM.
20 μl of 2.5 mg/ml microsome solution, 20 μl of 50 μM testosterone working solution, 20 μl of MgCl2 solution and 20 μl of the compound working solution (150, 50, 15, 5, 1.5, 0.15, 0.015, 0 μM, different reaction systems for each concentration) were taken respectively and mixed well. For the positive control group, the compound was replaced with the same concentration of ketoconazole. The mixture together with 5 mM NADPH solution were pre-incubated at 37° C. for 5 minutes. After 5 minutes, 20 μl of NADPH were added to each well, the reaction was started and incubated for 30 minutes. All the incubated samples were present in duplicate. After 30 minutes, 250 μl of acetonitrile containing internal standard were added to all samples, mixed well, shaken at 800 rpm for 10 minutes, and then centrifuged at 3700 rpm for 10 minutes. 80 μl of the supernatant were taken and analyzed by LC-MS/MS.
The data were calculated by Graphpad Prism to obtain the IC50 values of the compounds on the testosterone metabolite site of CYP3A4.
(Liver microsomes are vesicles of endoplasmic reticulum, rich in cytochrome P450 enzymes.)

Data set [2] addresses human TLR8 (Homo sapiens (Human), UniProt Q9NR97). Nature of the data set: Agonistic activity on human TLR8 in HEK-Blue hTLR8 stably transfected cells. Particulars: for EC50: OD 620 nm. The data set is classed as cell-based. As to the method:
The activation effect of the compounds of the present invention on the hTLR8 protein expressed by the HEK-Blue™ hTLR8 stably transfected cells was determined by the following experimental method:
A bag of HEK-Blue detection dry powder was dissolved in 50 ml of water free of endotoxin, and the solution was then placed in an incubator at 37° C. for 10 minutes followed by sterile filtration to prepare a HEK-Blue detection medium. The compound was firstly formulated into a 20 mM stock solution, then diluted with pure DMSO to a maximum concentration of 6×10^6 nM, and a total of 10 points were obtained by a 3-fold gradient dilution. The compound was firstly diluted 20-fold with the medium, then 20 μl of the diluted compound were added to each well.
The supernate was removed from the HEK-Blue™ hTLR8 cells, to which 2-5 ml of pre-warmed PBS were then added. The cells were placed in an incubator for 1-2 minutes, gently pipetted, and counted by trypan blue staining. The cells were re-suspended in the HEK-Blue detection medium to adjust the concentration to 2.2×10^5 cells/ml. 180 μl of cells were added to the above 96-well plate already added with 20 μl of the compounds, and incubated at 37° C. for 6-16 hours.
The activation effect of the compounds of the present invention on human TLR8 can be determined by the above test, and the obtained EC50 values are shown in Table 2.

In data set [3] the test system is PBMC. Nature of the data set: Stimulation of the secretion of IFN-α from peripheral blood mononuclear cells (PBMC). It counts as cell-based, human. To be noted: minimal effective concentration: lowest concentration giving cytokine level at least 3 times the minimum detection limit; 24 hours incubation. As to the method: The ability of the compounds of the present invention to stimulate the secretion of IFN-α from PBMC was determined by the following experimental method:
The compound was diluted with pure DMSO to a maximum concentration of 5 mM, and a total of 9 points were obtained by a 4-fold gradient dilution. 4 μl of the compound were then added to 196 μl of RMPI 1640 medium containing 10% FBS and mixed well. 50 μl of the mixture were taken from each well and added to a new 96-well plate.
All reagents were equilibrated to room temperature. 60 ml of blood and PBS+2% FBS were added to a 250 ml culture flask, gently pipetted, mixed well and diluted. 15 ml of lymphocyte separation solution Ficoll-Paque PREMIUM and then 30 ml of diluted blood were added to a 50 ml PBMC centrifuge tube SepMate™-50. The mixture was centrifuged at 1200 g for 10 minutes at room temperature. The supernatant was taken and then centrifuged at 300 g for 8 minutes. The cells were re-suspended in the RMPI 1640 medium containing 10% FBS and counted, and the number of PBMCs was adjusted to 3.33×10^6 cells/ml. 150 μl of the cell solution were added to the plate added with the compound, and incubated in an incubator at 37° C., in 5.0% CO2 for 24 hours.
The cell culture plate was placed in a centrifuge, and centrifuged at 1200 rpm for 10 minutes at room temperature. 150 μl of the supernatant were taken from each well. The reagents in the human IFN-α kit were first equilibrated to normal temperature. The anti-IFN-α-Eu^3+-Cryptate conjugate and the anti-IFN-α-d2-conjugate were formulated in the dark according to the kit instructions, and both of them were mixed well with the conjugate buffer at a ratio of 1:40. 16 μl of the supernatant obtained by centrifugation were then added to each well. 2 μl of anti-IFN-α-Eu^3+-Cryptate conjugate and anti-IFN-α-d2-conjugate formulated just now were then added to each well. The plate was shaken and mixed well, and incubated in the dark at room temperature for 3 hours.
The PHERAStar was read in the HTRF mode. The lowest compound concentration that stimulated cytokine levels of at least 3 times higher than the minimum detection limit was defined as the minimal effective concentration (MEC) value of the compound in the cytokine stimulation test.
The ability of the compounds of the present invention to stimulate the secretion of IFN-α from PBMC was determined by the above test, and the obtained MEC values are shown in Table 3.

CYP3A4, sequence (P08684 whole entry): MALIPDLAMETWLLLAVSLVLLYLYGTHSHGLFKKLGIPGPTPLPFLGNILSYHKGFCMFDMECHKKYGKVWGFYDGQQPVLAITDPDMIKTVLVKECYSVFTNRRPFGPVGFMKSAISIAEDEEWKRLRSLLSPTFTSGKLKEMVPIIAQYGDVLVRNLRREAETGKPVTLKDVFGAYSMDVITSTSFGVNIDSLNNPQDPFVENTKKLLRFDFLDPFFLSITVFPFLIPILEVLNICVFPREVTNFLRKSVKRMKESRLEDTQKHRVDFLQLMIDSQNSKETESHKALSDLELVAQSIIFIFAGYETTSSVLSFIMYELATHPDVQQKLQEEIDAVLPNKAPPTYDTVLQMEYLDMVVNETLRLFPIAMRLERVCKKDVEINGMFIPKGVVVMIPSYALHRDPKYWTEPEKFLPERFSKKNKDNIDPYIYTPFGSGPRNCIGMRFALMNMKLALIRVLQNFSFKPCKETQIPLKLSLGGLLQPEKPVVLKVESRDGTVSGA
human TLR8, sequence (Q9NR97 27-1041): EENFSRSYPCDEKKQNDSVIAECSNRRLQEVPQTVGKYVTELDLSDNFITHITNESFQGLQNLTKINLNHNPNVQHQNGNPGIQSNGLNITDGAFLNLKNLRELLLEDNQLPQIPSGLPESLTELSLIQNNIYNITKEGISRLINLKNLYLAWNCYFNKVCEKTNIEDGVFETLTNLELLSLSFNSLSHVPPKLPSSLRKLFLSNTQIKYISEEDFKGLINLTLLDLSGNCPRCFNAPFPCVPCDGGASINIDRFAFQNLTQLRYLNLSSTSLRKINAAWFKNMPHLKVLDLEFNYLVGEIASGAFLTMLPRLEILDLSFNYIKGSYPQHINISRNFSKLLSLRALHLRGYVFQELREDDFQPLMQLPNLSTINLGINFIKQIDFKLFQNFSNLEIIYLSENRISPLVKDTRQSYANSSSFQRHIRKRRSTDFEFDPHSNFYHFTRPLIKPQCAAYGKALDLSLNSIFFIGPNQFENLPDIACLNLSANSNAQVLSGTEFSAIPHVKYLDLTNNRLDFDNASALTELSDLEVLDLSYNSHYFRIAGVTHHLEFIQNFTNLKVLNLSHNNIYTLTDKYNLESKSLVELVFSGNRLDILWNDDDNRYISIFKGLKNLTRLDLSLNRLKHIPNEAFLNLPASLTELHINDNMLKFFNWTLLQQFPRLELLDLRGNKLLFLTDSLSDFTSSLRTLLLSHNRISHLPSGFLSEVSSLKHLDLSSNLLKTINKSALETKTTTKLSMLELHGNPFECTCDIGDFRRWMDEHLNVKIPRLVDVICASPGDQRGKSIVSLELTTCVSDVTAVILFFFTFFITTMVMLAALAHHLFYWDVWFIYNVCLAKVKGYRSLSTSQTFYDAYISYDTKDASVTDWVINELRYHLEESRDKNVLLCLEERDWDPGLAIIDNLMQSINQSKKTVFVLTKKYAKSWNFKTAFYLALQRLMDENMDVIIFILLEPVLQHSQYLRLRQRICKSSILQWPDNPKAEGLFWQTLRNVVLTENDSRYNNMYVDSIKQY

For orientation: IC50 means the concentration that inhibits the measured activity by half. As a reminder, the Emax is the size of the effect at its maximum, as opposed to the concentration needed. For orientation: EC50 means the midpoint of the concentration-response curve. As to `CCCCOc1nc(N)c2cnn(Cc3ccc(CN4CCC4)cc3)c2n1` [Example 2, 1-(4-(Azetidin-1-ylmethyl)benzyl)-6-butoxy-1H-pyrazolo[3,4-d]pyrimidin-4-amine], the IC50 in data set [1] worked out at 19 µM. In data set [2], the Emax is 52% and the EC50 was over 29 µM. In data set [3], the “MEC to stimulate the secretion of IFN-α from PBMC” value (shortened to “MEC to stimulate the secretion”) is recorded as 23 nM.

Regarding `CCCCOc1nc(N)c2cnn(Cc3ccc(CN4CCCCC4)cc3)c2n1` [Example 3, 6-Butoxy-1-(4-(piperidin-1-ylmethyl)benzyl)-1H-pyrazolo[3,4-d]pyrimidin-4-amine], the IC50 in data set [1] was 3 µM. In data set [2], the maximum response (Emax) came out at 2% and the EC50 was over 24 µM. Further, the “MEC to stimulate the secretion” value in data set [3] is listed as 20 nM.

In the case of `CCCCOc1nc(N)c2cnn(Cc3cccc(CN4CCCC4)c3)c2n1` [Example 4, 6-Butoxy-1-(3-(pyrrolidin-1-ylmethyl)benzyl)-1H-pyrazolo[3,4-d]pyrimidin-4-amine], the IC50 in data set [1] is 6 µM. In data set [2], this molecule showed an Emax of 28% and an EC50 of over 30 µM. The “MEC to stimulate the secretion” value in data set [3] was 100 nM.

Consider `COCCOc1nc(N)c2cnn(Cc3ccc(CN4CCCC4)cc3)c2n1` [Example 7, 6-(2-Methoxyethoxy)-1-(4-(pyrrolidin-1-ylmethyl)benzyl)-1H-pyrazolo[3,4-d]pyrimidin-4-amine], for which the IC50 in data set [1] was over 30 µM. Moreover, in data set [2], the Emax stood at 0% and the EC50 was over 30 µM. The “MEC to stimulate the secretion” value in data set [3] was found to be 89 nM.
